Molecules are shown by their SMILES.

The values that follow come from patent publication US9169217B2, “Arylalkyl esters of 4-amino-6-(substituted phenyl)-picolinates and 6-amino-2-(substituted phenyl)-pyrimidinecarboxylates and their use as selective herbicides for crops” (Dow AgroSciences LLC, priority 2011, dated 2015).

Format in all cases: in vivo
Test [1] relates to Brassica sinapis (Mustard, wild). In words: Postemergence herbicidal activity in cereal crops (Example 14). The conditions noted are these: wheat cropping systems, postemergence spray, 35 g ae/ha, 21 DAA. As for the experimental part:
(§1) Seeds of the desired test plant species were planted in Sun Gro Metro-Mix® 360 planting mixture, which typically has a pH of 6.0 to 6.8 and an organic matter content of about 30 percent, in plastic pots with a surface area of 84.6 cm^2. When required to ensure good germination and healthy plants, a fungicide treatment and/or other chemical or physical treatment was applied. The plants were grown for 7-36 d in a greenhouse with an approximate 14 h photoperiod which was maintained at about 18° C. during the day and 17° C. during the night. Nutrients and water were added on a regular basis and supplemental lighting was provided with overhead metal halide 1000-Watt lamps as necessary. The plants were employed for testing when they reached the second or third true leaf stage.
(§2) Treatments consisted of esters of compounds 33, 34, 39, 40 and 42 and B, F, G and H. Compound B is methyl 4-amino-3-chloro-6-(4-cyclopropylphenyl)-5-fluoropicolinate; compound F is methyl 6-amino-2-(4-chloro-2-fluoro-3-methoxyphenyl)-5-methoxypyrimidine-4-carboxylate; compound G is methyl 4-amino-3-chloro-6-(4-chloro-2-fluoro-3-methoxyphenyl)picolinate; and compound H is methyl 4-amino-3-chloro-6-(4-chloro-2-fluoro-3-(1-fluoroethyl)phenyl)-5-fluoropicolinate. A weighed amount, determined by the highest rate to be tested, of each test compound was placed in a 25 mL glass vial and was dissolved in 8 mL of a 97:3 v/v mixture of acetone and DMSO to obtain concentrated stock solutions. […] The concentrated stock solutions obtained were diluted with 16 mL of an aqueous mixture containing acetone, water, isopropyl alcohol, DMSO, Agri-dex crop oil concentrate, and Triton® X-77 surfactant in a 64.7:26.0:6.7:2.0:0.7:0.01 v/v ratio to obtain spray solutions containing the highest application rates. Additional application rates were obtained by serial dilution of 12 mL of the high rate solution into a solution containing 4 mL of a 97:3 v/v mixture of acetone and DMSO and 8 mL of an aqueous mixture containing acetone, water, isopropyl alcohol, DMSO, Agri-dex crop oil concentrate, and Triton® X-77 surfactant in a 48.5:39.0:10.0:1.5:1.0:0.02 v/v ratio to obtain ½×, ¼×, ⅛× and 1/16× rates of the high rate. Compound requirements are based upon a 12 mL application volume at a rate of 187 L/ha. Formulated compounds were applied to the plant material with an overhead Mandel track sprayer equipped with 8002E nozzles calibrated to deliver 187 L/ha over an application area of 0.503 m^2 at a spray height of 18 inches (43 cm) above average plant canopy height. Control plants were sprayed in the same manner with the blank.
(§3) The treated plants and control plants were placed in a greenhouse as described above and watered by sub-irrigation to prevent wash-off of the test compounds. After 20-22 d, the condition of the test plants as compared with that of the untreated plants was determined visually and scored on a scale of 0 to 100 percent where 0 corresponds to no injury and 100 corresponds to complete kill.

The test system of test [2] is Polygonum convolvulus (Buckwheat, wild). Described as above. To be noted: wheat cropping systems, postemergence spray, 35 g ae/ha, 21 DAA. As for the experimental part: as §1, §2, §3
The test system of test [3] is Ipomoea hederacea (Morningglory, ivyleaf). In words: General postemergence herbicidal activity (Example 13). To be noted: post-emergent spray, 14 DAA. As for the experimental part: Seeds or nutlets of the desired test plant species were planted in Sun Gro Metro-Mix® 360 planting mixture, which typically has a pH of 6.0 to 6.8 and an organic matter content of about 30 percent, in plastic pots with a surface area of 84.6 square centimeters (cm^2). When required to ensure good germination and healthy plants, a fungicide treatment and/or other chemical or physical treatment was applied. The plants were grown for 7-31 days (d) in a greenhouse with an approximate 15 hour (h) photoperiod which was maintained at about 23-29° C. during the day and 22-28° C. during the night. Nutrients and water were added on a regular basis and supplemental lighting was provided with overhead metal halide 1000-Watt lamps as necessary. The plants were employed for testing when they reached the first or second true leaf stage.
Treatments consisted of esters of compounds 33 and 39 and F and G. Compound F is methyl 6-amino-2-(4-chloro-2-fluoro-3-methoxyphenyl)-5-methoxypyrimidine-4-carboxylate; and compound G is methyl 4-amino-3-chloro-6-(4-chloro-2-fluoro-3-methoxyphenyl)picolinate. A weighed amount, determined by the highest rate to be tested, of each test compound was placed in a 25 mL glass vial and was dissolved in 4 mL of a 97:3 v/v (volume/volume) mixture of acetone and dimethyl sulfoxide (DMSO) to obtain concentrated stock solutions. […] The concentrated stock solutions obtained were diluted with 20 mL of an aqueous mixture containing acetone, water, isopropyl alcohol, DMSO, Atplus 411F crop oil concentrate, and Triton® X-155 surfactant in a 48.5:39:10:1.5:1.0:0.02 v/v ratio to obtain spray solutions containing the highest application rates. Additional application rates were obtained by serial dilution of 12 mL of the high rate solution into a solution containing 2 mL of a 97:3 v/v (volume/volume) mixture of acetone and DMSO and 10 mL of an aqueous mixture containing acetone, water, isopropyl alcohol, DMSO, Atplus 411F crop oil concentrate, and Triton® X-155 surfactant in a 48.5:39:10:1.5:1.0:0.02 v/v ratio to obtain ½×, ¼×, ⅛× and 1/16× rates of the high rate. Compound requirements are based upon a 12 mL application volume at a rate of 187 liters per hectare (L/ha). Formulated compounds were applied to the plant material with an overhead Mandel track sprayer equipped with 8002E nozzles calibrated to deliver 187 L/ha over an application area of 0.503 square meters (m^2) at a spray height of 18 inches (43 cm) above the average plant canopy height. Control plants were sprayed in the same manner with the solvent blank.
The treated plants and control plants were placed in a greenhouse as described above and watered by sub-irrigation to prevent wash-off of the test compounds. After 14 d, the condition of the test plants as compared with that of the untreated plants was determined visually and scored on a scale of 0 to 100 percent where 0 corresponds to no injury and 100 corresponds to complete kill.

In test [4] the test system is Matricaria chamomilla (Mayweed, wild). Description: Postemergence herbicidal activity in cereal crops (Example 14). To be noted: wheat cropping systems, postemergence spray, 35 g ae/ha, 21 DAA. As for the experimental part:
as §1, §2, §3

[5] abbreviates: 35 g ai/ha, 0 = no injury, 100 = complete kill.

As to `Nc1c(F)c(-c2ccc(C3CC3)cc2)nc(C(=O)OCc2ccccc2)c1Cl` [Compound 42, benzyl 4-amino-3-chloro-6-(4-cyclopropylphenyl)-5-fluoropicolinate], the “Visual Injury (%) SINAR” value in test [1] is given as 93%. For the same molecule, in test [2], the “Visual Injury (%) POLCO” value is given as 95%.

With `COc1c(Cl)ccc(-c2cc(N)c(Cl)c(C(=O)OCc3ccccc3)n2)c1F` [Compound 39], the “Visual Injury (%) IPOHE” value was 70% in test [3] (8.75 g ai/ha), 75% in test [3] (17.5 g ai/ha) and 80% in test [3] (setting [5]). In addition, the “Visual Injury (%) SINAR” value in test [1] came out at 95%. The “Visual Injury (%) POLCO” value in test [2] was determined as 95%. Moreover, in test [4], the “Visual Injury (%) MATCH” value turned out to be 95%.

Regarding `COC(=O)c1nc(-c2ccc(C3CC3)cc2)c(F)c(N)c1Cl` [Compound B, methyl 4-amino-3-chloro-6-(4-cyclopropylphenyl)-5-fluoropicolinate], the “Visual Injury (%) SINAR” value in test [1] came out at 70%. In test [2], the “Visual Injury (%) POLCO” value was found to be 62%.

In the case of `COC(=O)c1nc(-c2ccc(Cl)c(OC)c2F)cc(N)c1Cl` [Compound G, methyl 4-amino-3-chloro-6-(4-chloro-2-fluoro-3-methoxyphenyl)picolinate, reference compound], the “Visual Injury (%) IPOHE” value in test [3] (8.75 g ai/ha) is listed as 40%; in test [3] (17.5 g ai/ha), 50%; in test [3] (setting [5]), 65%. Moreover, the “Visual Injury (%) SINAR” value in test [1] stood at 80%. Moreover, the “Visual Injury (%) POLCO” value in test [2] is recorded as 85%. Further, in test [4], the “Visual Injury (%) MATCH” value is listed as 75%.

With `COC(=O)c1nc(-c2ccc(Cl)c(OC)c2F)nc(N)c1OC` [Compound F, methyl 6-amino-2-(4-chloro-2-fluoro-3-methoxyphenyl)-5-methoxypyrimidine-4-carboxylate, reference compound], the “Visual Injury (%) IPOHE” value in test [3] (70 g ai/ha) worked out at 80%. Moreover, the “Visual Injury (%) MATCH” value in test [4] turned out to be 10%.
